Results taken from patent publication US20140329863A1 (priority 2011, published 2014).

Tested on: PrP^Sc in dividing ScN2a-cl3 cells
Assay: not given
Format: cell-based, mouse
Set-up: Dividing ELISA pEC50 (μM) 1st Expt. / Dividing ELISA pEC50 (μM) 2nd Expt. / Dividing ELISA pEC50 (μM) 3rd Expt. / Dividing ELISA pEC50 (μM) Mean: unit not given here
Details: ScN2a-cl3 dividing cells; 1st determination

| Structure (SMILES) | Dividing ELISA pEC50 (μM) 1st Expt. |
| --- | --- |
| c1ccc2cc(Nc3nc(-c4ccncc4)cs3)ncc2c1 [compound 32] | 6.58 |

Same assay, conditions: ScN2a-cl3 dividing cells; 1st determination; read-out: Dividing ELISA EC50 (μM) 1st Expt.

| Structure (SMILES) | EC50 [µM] |
| --- | --- |
| c1ccc2cc(Nc3nc(-c4ccncc4)cs3)ncc2c1 [compound 32] | 0.261 |

Same assay, conditions: ScN2a-cl3 dividing cells; 2nd determination

| Structure (SMILES) | Dividing ELISA pEC50 (μM) 2nd Expt. |
| --- | --- |
| c1ccc2cc(Nc3nc(-c4ccncc4)cs3)ncc2c1 [compound 32] | 6.56 |

Same assay, conditions: ScN2a-cl3 dividing cells; 2nd determination; read-out: Dividing ELISA EC50 (μM) 2nd Expt.

| Structure (SMILES) | EC50 [µM] |
| --- | --- |
| c1ccc2cc(Nc3nc(-c4ccncc4)cs3)ncc2c1 [compound 32] | 0.277 |

Same assay, conditions: ScN2a-cl3 dividing cells; 3rd determination

| Structure (SMILES) | Dividing ELISA pEC50 (μM) 3rd Expt. |
| --- | --- |
| c1ccc2cc(Nc3nc(-c4ccncc4)cs3)ncc2c1 [compound 32] | 6.42 |

Same assay, conditions: ScN2a-cl3 dividing cells; 3rd determination; read-out: Dividing ELISA EC50 (μM) 3rd Expt.

| Structure (SMILES) | EC50 [µM] |
| --- | --- |
| c1ccc2cc(Nc3nc(-c4ccncc4)cs3)ncc2c1 [compound 32] | 0.383 |

Same assay, conditions: ScN2a-cl3 dividing cells; mean of three determinations

| Structure (SMILES) | Dividing ELISA pEC50 (μM) Mean |
| --- | --- |
| c1ccc2cc(Nc3nc(-c4ccncc4)cs3)ncc2c1 [compound 32] | 6.52 |

Same assay, conditions: ScN2a-cl3 dividing cells; mean of three determinations; read-out: Dividing ELISA EC50 (μM) Mean

| Structure (SMILES) | EC50 [µM] |
| --- | --- |
| c1ccc2cc(Nc3nc(-c4ccncc4)cs3)ncc2c1 [compound 32] | 0.307 |

Same assay, conditions: dividing ScN2a-cl3 cells; read-out: EC50 (nM): ELISA

| Structure (SMILES) | EC50 [µM] |
| --- | --- |
| OCCNCc1cc(Br)ccc1OCc1ccc(Cl)cc1Cl [IND-0033452] | 2.85 |

Same assay, conditions: read-out: Potency (nM) ELISA (EC50); PrP^Sc ELISA, dividing ScN2a-cl3 cells

| Structure (SMILES) | EC50 [µM] |
| --- | --- |
| OCCNCc1cc(Br)ccc1OCc1ccc(Cl)cc1Cl [IND-0033452] | 2.85 |

Tested on: not listed separately
Assay: Hepatic microsomal stability, human
Details: human liver microsomes; predicted hepatic extraction

| Structure (SMILES) | Hepatic Extraction Ratio Human |
| --- | --- |
| CCOc1ccccc1C1C(C#N)=C(N)Oc2cc(N(C)C)ccc21 (stereo not shown) [IND8541] | 0.77 |
| COc1ccc(S(=O)(=O)N2CCOc3ccccc32)cc1 [IND116071] | 0.94 |
| Cc1c(C(=O)OC(C)C)[nH]c2c1C(=O)CC(c1cccs1)C2 (stereo not shown) [IND116088] | 0.74 |
| CCOc1ccc(Nc2nc(-c3c(C)nc4sccn34)cs2)cc1 [IND126328] | 0.76 |
| COc1cccc(N2CCN(C(=O)c3cc(C)ccc3OC)CC2)c1 [IND126339] | 0.87 |

Same assay, conditions: human, human liver microsomes, pH 7.4

| Structure (SMILES) | half-life at 1 μM [min] |
| --- | --- |
| CCOc1ccccc1C1C(C#N)=C(N)Oc2cc(N(C)C)ccc21 (stereo not shown) [IND8541] | 20.3 |
| COc1ccc(S(=O)(=O)N2CCOc3ccccc32)cc1 [IND116071] | 4.53 |
| Cc1c(C(=O)OC(C)C)[nH]c2c1C(=O)CC(c1cccs1)C2 (stereo not shown) [IND116088] | 23.9 |
| CCOc1ccc(Nc2nc(-c3c(C)nc4sccn34)cs2)cc1 [IND126328] | 21.9 |
| COc1cccc(N2CCN(C(=O)c3cc(C)ccc3OC)CC2)c1 [IND126339] | 10.3 |

Tested on: PrP^C in T98G cells
Assay: not given
Format: cell-based, human
Details: read-out: EC50 (μM) ELISA potency, PrP^C in T98G cells

| Structure (SMILES) | EC50 [µM] |
| --- | --- |
| COc1cc(C(=O)c2cc(Cl)ccc2N)cc(OC)c1OC [IND1323] | 0.085 |
| CC1=CC(C)(C)N(S(=O)(=O)c2ccc(C)cc2)c2cc(C)ccc21 [IND5418] | 0.649 |
| CCOc1ccccc1C1C(C#N)=C(N)Oc2cc(N(C)C)ccc21 (stereo not shown) [IND8541] | 0.155 |
| COc1ccc(S(=O)(=O)N2CCOc3ccccc32)cc1 [IND116071] | 1.71 |
| Cc1c(C(=O)OC(C)C)[nH]c2c1C(=O)CC(c1cccs1)C2 (stereo not shown) [IND116088] | 0.303 |
| CCOc1ccc(Nc2nc(-c3c(C)nc4sccn34)cs2)cc1 [IND126328] | 0.065 |
| COc1cccc(N2CCN(C(=O)c3cc(C)ccc3OC)CC2)c1 [IND126339] | 0.248 |

Tested on: PrP^Sc in nondividing ScN2a-cl3 cells
Assay: not given
Format: cell-based, mouse
Details: read-out: Non-Dividing ELISA EC50 (μM) Mean (n = 3); ScN2a-c13 non-dividing cells; mean n = 3

| Structure (SMILES) | EC50 [µM] |
| --- | --- |
| c1ccc2cc(Nc3nc(-c4ccncc4)cs3)ncc2c1 [compound 32] | > 32 |

Tested on: not listed separately
Assay: Hepatic microsomal stability, mouse
Details: mouse liver microsomes; predicted hepatic extraction

| Structure (SMILES) | Hepatic Extraction Ratio Mouse |
| --- | --- |
| CCOc1ccccc1C1C(C#N)=C(N)Oc2cc(N(C)C)ccc21 (stereo not shown) [IND8541] | 0.97 |
| COc1ccc(S(=O)(=O)N2CCOc3ccccc32)cc1 [IND116071] | 0.98 |
| Cc1c(C(=O)OC(C)C)[nH]c2c1C(=O)CC(c1cccs1)C2 (stereo not shown) [IND116088] | 0.90 |
| CCOc1ccc(Nc2nc(-c3c(C)nc4sccn34)cs2)cc1 [IND126328] | 0.86 |
| COc1cccc(N2CCN(C(=O)c3cc(C)ccc3OC)CC2)c1 [IND126339] | 0.95 |

Same assay, conditions: mouse, mouse liver microsomes, pH 7.4

| Structure (SMILES) | half-life at 1 μM [min] |
| --- | --- |
| CCOc1ccccc1C1C(C#N)=C(N)Oc2cc(N(C)C)ccc21 (stereo not shown) [IND8541] | 1.71 |
| COc1ccc(S(=O)(=O)N2CCOc3ccccc32)cc1 [IND116071] | 1.53 |
| Cc1c(C(=O)OC(C)C)[nH]c2c1C(=O)CC(c1cccs1)C2 (stereo not shown) [IND116088] | 6.88 |
| CCOc1ccc(Nc2nc(-c3c(C)nc4sccn34)cs2)cc1 [IND126328] | 9.64 |
| COc1cccc(N2CCN(C(=O)c3cc(C)ccc3OC)CC2)c1 [IND126339] | 3.2 |

Tested on: N2a-cl3 cells
Assay: not given
Details: not given

| Structure (SMILES) | Calcein |
| --- | --- |
| OCCNCc1cc(Br)ccc1OCc1ccc(Cl)cc1Cl [IND-0033452] | MW: 405.1 EC50 (nM): ELISA: 2850 Calcein: 27% Western: 1993 |

Same assay, conditions: mouse

| Structure (SMILES) | Calcein (value printed in %) [%] |
| --- | --- |
| OCCNCc1cc(Br)ccc1OCc1ccc(Cl)cc1Cl [IND-0033452] | 27 |

Same assay, conditions: read-out: Dividing Calcein EC50 (μM) Mean (n = 3)

| Structure (SMILES) | EC50 [µM] |
| --- | --- |
| c1ccc2cc(Nc3nc(-c4ccncc4)cs3)ncc2c1 [compound 32] | > 32 |

Tested on: PrP^Sc in ScN2a-cl3 cells
Assay: not given
Format: cell-based, mouse
Details: Western immunoblots, ScN2a-cl3 cells; read-out: EC50 (nM): Western

| Structure (SMILES) | EC50 [nM] |
| --- | --- |
| OCCNCc1cc(Br)ccc1OCc1ccc(Cl)cc1Cl [IND-0033452] | 1990 |

Same assay, conditions: read-out: Potency (nM) Western (EC50); Western immunoblots, dividing ScN2a-cl3 cells

| Structure (SMILES) | EC50 [nM] |
| --- | --- |
| OCCNCc1cc(Br)ccc1OCc1ccc(Cl)cc1Cl [IND-0033452] | 1990 |
